Measurements published in patent US6802882B2, “Nitrification inhibitors, and the use of polyacids which contain a nitrification inhibitor for the treatment of inorganic fertilizers” (BASF Aktiengesellschaft, priority 1996, dated 2004).

How the values were obtained:
[1] = Storage stability rapid test of treated inorganic fertilizers (loss of nitrification inhibitor); type: physicochemical; conditions: on ammonium sulfate nitrate carrier fertilizer; 4 weeks at 30° C., 40 to 50% relative atmospheric humidity, approx. 1.2 m/s air velocity
Method: The carrier fertilizer used was ammonium sulfate nitrate (ASN). 2 g of pyrazole were dissolved in a little water, and if desired (see Table I) the solution was mixed with a stoichiometric amount of phosphoric acid (1:1) and with from 1 to 10 g of polyacrylic acid or polyphosphoric acid. […] of the carrier fertilizer in the form of granules were prewarmed to approximately 50° C. and slowly sprayed onto a turntable with the mixture containing the pyrazole compound. To accelerate the drying, drying was carried out with hot air, either at the end of the spraying or after interruption of the spraying.
The storage stability of the treated inorganic fertilizers was determined in a rapid test in which the nitrification-inhibited inorganic fertilizers were stored in a ventilated warming cabinet for 4 weeks at 30° C., from 40 to 50% relative atmospheric humidity and approximately 1.2 m/s air velocity. The concentration of nitrification inhibitor on the inorganic fertilizer was determined before and after storage and the loss of nitrification inhibitor determined in percent. Approximately 10 to 30 g of treated inorganic fertilizer were stored in each case. The concentration of pyrazole compound as nitrification inhibitor in this case was from 0.05% by weight to 0.2% by weight at the start of the investigation, based on the treated inorganic fertilizer.

nitrification [2] = test: Field tests: NO3- and NH4-N-amounts in soil; type: in vivo; conditions: for Ø NH4-N amount in soil / Ø NO3-N amount in soil: n = 5, locations 1-5; for biological effectiveness (in words): field tests, results of table 1, reduced amounts of the active substance versus DCD
Method: The biological effectiveness of 4-chloro-3-methylpyrazole (4 Cl-3MP) and 3,4-dimethylpyrazole (3,4-DMP) in comparison with DCD and the control was tested in multiple field tests in different environments by means of the features “nitrate content in the basis of the stem”, “NO3— and NH4—N-content in the soil” as well as “grain produce”.
The standard methods used in agricultural tests were applied to the laying-out, probing, harvesting and evaluation of the field tests.
The analysis of the plant and soil samples followed standard procedures. The remaining measures undertaken in the production, e.g. plant protection, were in accordance with good agricultural practice and were applied uniformly.

rape plants = test: Field tests: NO3 amount in the basis of the stem of rape plants; type: in vivo; conditions: n = 5, locations 1-5
Method: (§1) The biological effectiveness of 4-chloro-3-methylpyrazole (4 Cl-3MP) and 3,4-dimethylpyrazole (3,4-DMP) in comparison with DCD and the control was tested in multiple field tests in different environments by means of the features “nitrate content in the basis of the stem”, “NO3— and NH4—N-content in the soil” as well as “grain produce”. The standard methods used in agricultural tests were applied to the laying-out, probing, harvesting and evaluation of the field tests. The analysis of the plant and soil samples followed standard procedures. The remaining measures undertaken in the production, e.g. plant protection, were in accordance with good agricultural practice and were applied uniformly. As a consequence of this treatment the nitrate consumption of the plants is reduced (compare NO3-content in the basis of the stem of rape plants, table 2) and the produce is enhanced (compare grain produce of winter wheat, tables 3a and 3b).

winter wheat = test: Field tests: grain produce of winter wheat; type: in vivo
Method: as §1

nitrification [3] = test: Nitrification inhibiting effect of different pyrazoles; set-up: concentration or dose not given beside the values

## Cc1cn[nH]c1C.O=P(O)(O)O [3,4-Dimethylpyrazole phosphate, 3,4-dimethylpyrazolium dihydrogen Phosphate]
[1]
  Loss in percent (loss of nitrification inhibitor during storage): 31%

## Cc1c[nH]nc1C [3,4-Dimethylpyrazole, 3,4-dimethylpyrazole]
[1]
  Loss in percent (loss of nitrification inhibitor during storage): 100%
Nitrification [2]; 2 weeks after application
  Ø NH4-N amount in soil: 82 kg/ha
  Ø NO3-N amount in soil: 54 kg/ha
Nitrification [2]; 4 weeks after application
  Ø NH4-N amount in soil: 70 kg/ha
  Ø NO3-N amount in soil: 43 kg/ha
Nitrification [2]; 6 weeks after application
  Ø NH4-N amount in soil: 71 kg/ha
  Ø NO3-N amount in soil: 44 kg/ha
Nitrification [2]; 8 weeks after application
  Ø NH4-N amount in soil: 37 kg/ha
  Ø NO3-N amount in soil: 28 kg/ha
Nitrification [2]
  biological effectiveness (in words): as good as or better than that of DCD
Rape plants; 2 weeks after application
  Ø NO3 amount in the basis of the stem of rape plants: 8105 ppm
Rape plants; 4 weeks after application
  Ø NO3 amount in the basis of the stem of rape plants: 6720 ppm
Rape plants; 6 weeks after application
  Ø NO3 amount in the basis of the stem of rape plants: 4899 ppm
Rape plants; 8 weeks after application
  Ø NO3 amount in the basis of the stem of rape plants: 4454 ppm
Winter wheat; location 2 (lean clay)
  grain produce of winter wheat: 97.8 dt/ha
Nitrification [3]; column head 1
  % inhibition per applied amount of ammonium: 88%
Nitrification [3]; column head 2
  % inhibition per applied amount of ammonium: 61%
Nitrification [3]; column head 4
  % inhibition per applied amount of ammonium: 48%
Nitrification [3]; column head 6
  % inhibition per applied amount of ammonium: 34%
Nitrification [3]; column head 8
  % inhibition per applied amount of ammonium: 27%

## Cc1cc[nH]n1.O=P(O)(O)O [3-Methylpyrazole phosphate, reference compound]
[1]
  Loss in percent (loss of nitrification inhibitor during storage): 55%

## Cc1cc[nH]n1 [3-Methylpyrazole, reference compound]
[1]
  Loss in percent (loss of nitrification inhibitor during storage): 100%
Nitrification [3]; column head 1
  % inhibition per applied amount of ammonium: 90%
Nitrification [3]; column head 2
  % inhibition per applied amount of ammonium: 58%
Nitrification [3]; column head 4
  % inhibition per applied amount of ammonium: 45%
Nitrification [3]; column head 6
  % inhibition per applied amount of ammonium: 27%
Nitrification [3]; column head 8
  % inhibition per applied amount of ammonium: 22%

## Cc1[nH]ncc1Cl.O=P(O)(O)O [4-Chloro-3-methylpyrazole phosphate, 4-chloro-3-methylpyrazolium dihydrogen Phosphate]
[1]
  Loss in percent (loss of nitrification inhibitor during storage): 92%
Nitrification [3]; column head 1
  % inhibition per applied amount of ammonium: 91%
Nitrification [3]; column head 2
  % inhibition per applied amount of ammonium: 62%
Nitrification [3]; column head 4
  % inhibition per applied amount of ammonium: 53%
Nitrification [3]; column head 6
  % inhibition per applied amount of ammonium: 45%
Nitrification [3]; column head 8
  % inhibition per applied amount of ammonium: 27%

## Cc1n[nH]cc1Cl [4-Chloro-3-methylpyrazole, 4-chloro-3-methylpyrazole]
[1]
  Loss in percent (loss of nitrification inhibitor during storage): 100%
Nitrification [2]; 2 weeks after application
  Ø NH4-N amount in soil: 115 kg/ha
  Ø NO3-N amount in soil: 61 kg/ha
Nitrification [2]; 4 weeks after application
  Ø NH4-N amount in soil: 79 kg/ha
  Ø NO3-N amount in soil: 50 kg/ha
Nitrification [2]; 6 weeks after application
  Ø NH4-N amount in soil: 76 kg/ha
  Ø NO3-N amount in soil: 39 kg/ha
Nitrification [2]; 8 weeks after application
  Ø NH4-N amount in soil: 40 kg/ha
  Ø NO3-N amount in soil: 28 kg/ha
Nitrification [2]
  biological effectiveness (in words): as good as or better than that of DCD
Rape plants; 2 weeks after application
  Ø NO3 amount in the basis of the stem of rape plants: 8112 ppm
Rape plants; 4 weeks after application
  Ø NO3 amount in the basis of the stem of rape plants: 6629 ppm
Rape plants; 6 weeks after application
  Ø NO3 amount in the basis of the stem of rape plants: 4774 ppm
Rape plants; 8 weeks after application
  Ø NO3 amount in the basis of the stem of rape plants: 4276 ppm
Winter wheat; location 4 (loamy sand)
  grain produce of winter wheat: 56.0 dt/ha
Nitrification [3]; column head 1
  % inhibition per applied amount of ammonium: 88%
Nitrification [3]; column head 2
  % inhibition per applied amount of ammonium: 66%
Nitrification [3]; column head 4
  % inhibition per applied amount of ammonium: 48%
Nitrification [3]; column head 6
  % inhibition per applied amount of ammonium: 32%
Nitrification [3]; column head 8
  % inhibition per applied amount of ammonium: 21%

## N#CN=C(N)N [DCD, reference compound]
Nitrification [2]; 2 weeks after application
  Ø NH4-N amount in soil: 87 kg/ha
  Ø NO3-N amount in soil: 47 kg/ha
Nitrification [2]; 4 weeks after application
  Ø NH4-N amount in soil: 68 kg/ha
  Ø NO3-N amount in soil: 44 kg/ha
Nitrification [2]; 6 weeks after application
  Ø NH4-N amount in soil: 82 kg/ha
  Ø NO3-N amount in soil: 35 kg/ha
Nitrification [2]; 8 weeks after application
  Ø NH4-N amount in soil: 39 kg/ha
  Ø NO3-N amount in soil: 29 kg/ha
Rape plants; 2 weeks after application
  Ø NO3 amount in the basis of the stem of rape plants: 8036 ppm
Rape plants; 4 weeks after application
  Ø NO3 amount in the basis of the stem of rape plants: 7022 ppm
Rape plants; 6 weeks after application
  Ø NO3 amount in the basis of the stem of rape plants: 4728 ppm
Rape plants; 8 weeks after application
  Ø NO3 amount in the basis of the stem of rape plants: 4274 ppm
Winter wheat; location 2 (lean clay)
  grain produce of winter wheat: 94.3 dt/ha
Winter wheat; location 4 (loamy sand)
  grain produce of winter wheat: 52.6 dt/ha

## Cc1nn(CO)cc1Cl [N-hydroxy-4Cl-3MP, N-hydroxymethyl-4-chloro-3-methylpyrazole]
Nitrification [3]; column head 1
  % inhibition per applied amount of ammonium: 87%
Nitrification [3]; column head 2
  % inhibition per applied amount of ammonium: 58%
Nitrification [3]; column head 4
  % inhibition per applied amount of ammonium: 45%
Nitrification [3]; column head 6
  % inhibition per applied amount of ammonium: 30%
Nitrification [3]; column head 8
  % inhibition per applied amount of ammonium: 15%

## Cc1cn(CO)nc1C [N-hydroxyl-3,4-DMP, N-hydroxymethyl-3,4-dimethylpyrazole]
Nitrification [3]; column head 1
  % inhibition per applied amount of ammonium: 85%
Nitrification [3]; column head 2
  % inhibition per applied amount of ammonium: 54%
Nitrification [3]; column head 4
  % inhibition per applied amount of ammonium: 40%
Nitrification [3]; column head 6
  % inhibition per applied amount of ammonium: 31%
Nitrification [3]; column head 8
  % inhibition per applied amount of ammonium: 10%
